From patent publication US9695193B2, “Inhibitors of Plasmodium falciparum equilibrative nucleoside transporter type I as anti-parasitic compounds” (The Trustees of Columbia University in the City of New York, priority 2013, dated 2017)
Like-named read-outs stand apart in the source and are kept apart here.

Assays:
Assay type in all cases: cell-based
PfENT1 = biological target: T1, PfENT1 (Plasmodium falciparum, UniProt Q8IDM6); conditions: primary HTS, compounds at 10 μM, 125 μM 5-FUrd
T1 construct: expressed in transfected cells; host or cells: fui1Δ yeast (Saccharomyces cerevisiae), co-expressing GFP
In short: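 fui1Δ yeast expressing PfENT1 and GFP were grown with 125 μM 5-fluorouridine, so growth reflects blocked 5-FUrd uptake. Compounds were screened at 10 μM. Growth scored by OD620 turbidity and GFP fluorescence, and hits had to be positive on both.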

PfENT1-HA-CO = biological target: T2, PfENT1-HA-CO (Plasmodium falciparum, UniProt Q8IDM6); assay: Concentration-dependent rescue of PfENT1-HA-CO-expressing fui1Δ yeast from 5-FUrd induced death
T2 construct: HA; expressed in transfected cells; host or cells: fui1Δ yeast (Saccharomyces cerevisiae)
Experimental: In the primary screen the compounds were tested at a concentration of 10 μM. Hits were identified by the growth of fui1Δ yeast expressing PfENT1 and Green Fluorescent Protein (GFP) in the presence of the cytotoxic nucleoside 5-fluorouridine (5-FUrd). 5-FUrd is transported by PfENT1. PfENT1 expressing fui1Δ yeast will only grow in the presence of 125 μM 5-FUrd if a PfENT1 inhibitor blocks the uptake of 5-FUrd into the yeast. Significant yeast growth in the HTS in 384 well plates was determined by two criteria: 1) turbidity as determined by the optical density at 620 nm (OD620) and 2) GFP fluorescence intensity. Positive responses were signal intensities greater than four standard deviations above the mean of the negative growth control wells. Hits had to be positive by both criteria. From the library screen, 171 chemical entities were identified as positive by both criteria (Table 2).
Of the 171 hits from the primary HTS, nine were chosen for more extensive validation using a series of secondary assays. These nine compounds included the top seven hits (HTS rank #1-7 as indicated in Tables 1 and 2), the first hit identified (compound HTS rank #19) and compound HTS rank #13, which was a unique chemical scaffold relative to the other 8 compounds. The secondary assays used to validate the nine selected hits include 1) repeat of the primary HTS using a series of compound concentrations to determine the concentration-response relationship for each compound, 2) testing in an alternative yeast-based assay in purine auxotrophic ade2Δ yeast expressing PfENT1 (described below, FIG. 1 and FIG. 4B), and 3) a Plasmodium falciparum cytotoxicity assay (described below, FIGS. 5A-B.). These assays allowed further confirmation the hits, determining the concentration-response relationships in the yeast-based assays and the concentration dependence of their ability to kill Plasmodium falciparum parasites during growth in in vitro culture. There was a roughly linear correlation between the compounds' IC50s measured in the two yeast-based assays. All nine compounds were tested in the P. falciparum cytotoxicity assay (FIGS. 5A-B).
(§1) The means values from single experiments are shown. In the key, CQ=chloroquine, and the Table 1 compounds are referenced as symbols indicating HTS rank #1-7, 13, and 19. In this assay, inhibitors of PfENT1 […] yeast growth (FIGS. 4B-C).

PfENT1-CO = biological target: T3, PfENT1-CO (Plasmodium falciparum, UniProt Q8IDM6); assay: [3H]adenosine uptake into PfENT1-CO expressing ade2Δ yeast; conditions: uptake over 15 minutes; Mean ± SD, N ≧ 3
T3 construct: expressed in transfected cells; host or cells: purine auxotrophic ade2Δ yeast (Saccharomyces cerevisiae)
Excerpt: FIGS. 4A-C are graphs showing the validation of selected compounds identified as Plasmodium falciparum Equilibrative Nucleoside Transporter Type I (PfENT1) inhibitors in the high-throughput screen (HTS). […] The means values from single experiments are shown. In the key, CQ=chloroquine, and the Table 1 compounds are referenced as symbols indicating HTS rank #1-7, 13, and 19.
as §1

[1] = test system: P. falciparum 3D7 parasites; assay: [3H]adenosine uptake into trophozoite-stage P. falciparum 3D7 parasites; conditions: Plasmodium falciparum, uptake over 15 minutes, Mean ± SD, N ≧ 3
Excerpt: FIGS. 5A-E are graphs and images reflecting the inhibitory effects of selected PfENT1 inhibiting compounds with P. falciparum. FIGS. 5A-C are graphs illustrating the inhibitory effects of selected PfENT1 inhibiting compounds with P. falciparum.

[2] = test system: P. falciparum parasites (3D7 strain); assay: Plasmodium falciparum cytotoxicity assay (3D7 strain, SYBR-Green); conditions: 72-96 hours, Mean ± SD
Experimental: Plasmodium falciparum Cytotoxicity Assay
P. falciparum parasites (3D7 strain-chloroquine sensitive) are grown in in vitro culture in human erythrocytes. Each well is inoculated with a low density of parasites in standard parasite growth media with supplemented hypoxanthine (10 or 367 μM). Increasing concentrations of drugs are added and parasites are allowed to grow for 72-96 hours in 5% CO2/5% O2/90% N2 gas at 37° C. At the end of the experiment, parasites are lysed, SYBR-Green dye in lysis solution is added and the fluorescence intensity is measured for each well.

Dd2 parasite = assay: Plasmodium falciparum parasite viability assay (Dd2); conditions: Dd2, high purine media, Mean ± SD
[3] = 3D7, high purine media (hypoxanthine 367 μM), read-out: IC50 3D7 parasite viability-high purine media
[4] = 3D7, low purine media (hypoxanthine 10 μM), read-out: IC50 3D7 parasite viability-low purine media

T1 sequence (Q8IDM6 whole entry): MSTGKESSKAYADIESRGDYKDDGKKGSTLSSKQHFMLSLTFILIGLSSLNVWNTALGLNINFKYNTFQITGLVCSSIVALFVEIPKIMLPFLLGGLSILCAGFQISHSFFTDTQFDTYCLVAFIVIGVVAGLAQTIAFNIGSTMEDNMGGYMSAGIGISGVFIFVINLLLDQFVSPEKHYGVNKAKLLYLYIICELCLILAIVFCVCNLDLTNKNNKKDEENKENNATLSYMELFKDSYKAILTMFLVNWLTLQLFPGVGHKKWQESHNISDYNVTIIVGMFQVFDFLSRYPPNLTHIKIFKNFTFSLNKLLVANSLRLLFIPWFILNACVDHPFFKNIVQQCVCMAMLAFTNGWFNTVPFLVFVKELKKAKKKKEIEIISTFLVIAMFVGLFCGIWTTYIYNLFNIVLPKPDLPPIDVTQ
T2 sequence (Q8IDM6 whole entry): as above
T3 sequence (Q8IDM6 whole entry): as above

| SMILES | Avg Normalized % maximal activity (PfENT1) [%] | IC50 (PfENT1-HA-CO) [µM] | IC50 (PfENT1-CO) [µM] | IC50 [1] [µM] | IC50 [2, 3] [µM] | IC50 [2, 4] [µM] | IC50 (Dd2 parasite) [µM] |
| --- | --- | --- | --- | --- | --- | --- | --- |
| O=C(Nc1ccc(-c2nc3ncccc3o2)cc1)c1ccccc1Br [compound 2, 2-bromo-N-(4-[1,3]oxazolo [4,5-b]pyridin-2-ylphenyl)benzamide] | 91.94 | 6 ± 1.7 | 0.0101 ± 0.0084 | 0.028 ± 0.0123 | 53.4 ± 11.1 | 31.2 ± 7.7 | 52.4 ± 5.7 |
| O=C(Nc1cccc(-c2nc3ncccc3o2)c1)c1cccc(F)c1 [compound 6, 3-fluoro-N-(3-[1,3]oxazolo [4,5-b]pyridin-2-ylphenyl)benzamide] | 59.06 | 5.7 ± 1.3 | 0.0096 ± 0.0074 | 0.0198 ± 0.0129 | 33.7 ± 5 | 34.8 ± 2.4 | 38.8 ± 4.9 |
| COc1cc(COc2ccc3c(C)cc(=O)oc3c2)cc(OC)c1OC [HTS Rank #3, 4-methyl-7-[(3,4,5-trimethoxybenzyl)oxy]-2H-chromen-2-one] | 84.71 | 2.3 ± 0.9 | 0.0024 ± 0.0015 | 0.0064 ± 0.003 | 41 ± 4.3 | 19.2 ± 4.3 | 36.2 ± 6 |
| COc1ccccc1C(=O)Nc1cccc(-c2nc3ncccc3o2)c1 [compound 7, 2-methoxy-N-(3-[1,3]oxazolo [4,5-b]pyridin-2-ylphenyl)benzamide] | 55.05 | 6.4 ± 0.9 | 0.0109 ± 0.0068 | 0.0248 ± 0.0174 | 44.8 ± 3.8 | 43.6 ± 4.4 | 31 ± 0.6 |
| O=C(Nc1ccc(-c2nnc(-c3ccco3)o2)cc1)c1ccco1 [compound 4, N-{4-[5-(2-furyl)-1,3,4-oxadiazol-2-yl]phenyl}-2-furamide] | 74.03 | 5.7 ± 0.8 | 0.0137 ± 0.0075 | 0.0458 ± 0.0241 | 14.7 ± 1.9 | 15 ± 1.5 | 15.3 ± 2.7 |
| Cn1cc(C(=O)C(=O)Nc2ccc(C(=O)N3CCCC3)cc2)c2ccccc21 [compound 5, 2-(1-methyl-1H-indol-3-yl)-2-oxo-N-[4-(pyrrolidin-1-ylcarbonyl)phenyl]acetamide] | 64.07 | 6.5 ± 1.5 | 0.0227 ± 0.0072 | 0.0386 ± 0.0201 | 33.1 ± 0.5 | 35.5 ± 0.7 | 28.9 ± 2.6 |
| O=C(Nc1ccc2nc(NC(=O)c3ccco3)sc2c1)c1ccco1 [compound 1] | 97.22 | 0.8 | 0.003 ± 0.0013 | 0.0054 ± 0.0029 | 37.7 ± 2 | 31.1 ± 4.7 | 25.8 ± 1.3 |
| Cc1ccccc1/C=C/c1nc2ccccc2c(=O)[nH]1 [compound 13, 2-[2-(2-methylphenyl)vinyl]-4(3H)-quinazolinone] | 24.69 | 4.7 ± 2.9 | – | 0.0216 ± 0.0142 | 6.7 ± 0.5 | 6.9 ± 0.4 | 2.6 ± 0.2 |
| O=C(Nc1ccc(Cl)c(-c2nc3ncccc3o2)c1)c1cccs1 [compound 19, N-(4-chloro-3-[1,3]oxazolo [4,5-b]pyridin-2-ylphenyl)-2-thiophenecarboxamide] | 21.24 | 5.4 ± 0.8 | 0.0384 ± 0.0165 | 0.0179 ± 0.0127 | 42.9 ± 2.8 | 43.2 ± 2.9 | 37.4 ± 1.6 |
| C[C@@H]1C[C@@H](O[C@H]2[C@H](O[C@H]3CC[C@@]4(C)C(CC[C@]5(C)[C@@H]4CC=C4C6CC(C)(C)CC[C@]6(C(=O)O[C@@H]6O[C@H](CO[C@@H]7O[C@H](CO)[C@@H](O[C@@H]8O[C@@H](C)[C@H](O)[C@@H](O)[C@H]8O)[C@H](O)[C@H]7O)[C@@H](O)[C@H](O)[C@H]6O)CC[C@]45C)[C@]3(C)CO)OC[C@H](O)[C@@H]2O)[C@H](O)[C@H](O)[C@H]1O (stereo partly shown) [compound 38] | 10.61 | – | – | – | – | – | – |
| O=C(Nc1sc2c(c1CNC1CCCCC1)CCCC2)c1ccccc1 [compound 148, N-{3-[(cyclohexylamino)methyl]-4,5,6,7-tetrahydro-1-benzothien-2-yl} benzamide] | 2.74 | – | – | – | – | – | – |
